Source: PubChem BioAssay (NCI)
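The compound was tested at five concentrations on cells cultured in 96-well plates, with a 48-hour exposure period. GI50 is the concentration that inhibits growth by half. At the TGI there is no net growth.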

Tests used:
Assay in all cases: NCI-60 cell line screen, 48 h
786-0 renal = system: 786-0 renal
SNB-75 CNS = system: SNB-75 CNS
U251 CNS = system: U251 CNS
A549 NSCLC = system: A549 NSCLC
ACHN renal = system: ACHN renal
BT-549 breast = system: BT-549 breast
CCRF-CEM leukemia = system: CCRF-CEM leukemia
COLO 205 colon = system: COLO 205 colon
EKVX NSCLC = system: EKVX NSCLC
HCC-2998 colon = system: HCC-2998 colon
HCT-15 colon = system: HCT-15 colon
HOP-62 NSCLC = system: HOP-62 NSCLC
HOP-92 NSCLC = system: HOP-92 NSCLC
HT29 colon = system: HT29 colon
IGROV1 ovarian = system: IGROV1 ovarian
KM12 colon = system: KM12 colon
M14 melanoma = system: M14 melanoma
MCF7 breast = system: MCF7 breast
MDA-MB-231 breast = system: MDA-MB-231 breast
MOLT-4 leukemia = system: MOLT-4 leukemia
NCI-H23 lung = system: NCI-H23 lung
NCI-H460 lung = system: NCI-H460 lung
NCI-H522 lung = system: NCI-H522 lung
NCI/ADR-RES ovarian = system: NCI/ADR-RES ovarian
OVCAR-4 ovarian = system: OVCAR-4 ovarian
OVCAR-5 ovarian = system: OVCAR-5 ovarian
OVCAR-8 ovarian = system: OVCAR-8 ovarian
PC-3 prostate = system: PC-3 prostate
SF-539 CNS = system: SF-539 CNS
SK-MEL-28 melanoma = system: SK-MEL-28 melanoma
SK-OV-3 ovarian = system: SK-OV-3 ovarian
SN12C renal = system: SN12C renal
SNB-19 CNS = system: SNB-19 CNS
SW-620 colon = system: SW-620 colon
TK-10 renal = system: TK-10 renal
UACC-62 melanoma = system: UACC-62 melanoma
DU-145 prostate = system: DU-145 prostate
HCT-116 colon = system: HCT-116 colon
HL-60(TB) leukemia = system: HL-60(TB) leukemia
HS 578T breast = system: HS 578T breast
K-562 leukemia = system: K-562 leukemia
LOX IMVI melanoma = system: LOX IMVI melanoma
MALME-3M melanoma = system: MALME-3M melanoma
MDA-MB-435 = system: MDA-MB-435
NCI-H226 lung = system: NCI-H226 lung
OVCAR-3 ovarian = system: OVCAR-3 ovarian
RPMI-8226 leukemia = system: RPMI-8226 leukemia
RXF 393 renal = system: RXF 393 renal
SF-268 CNS = system: SF-268 CNS
SF-295 CNS = system: SF-295 CNS
SK-MEL-2 melanoma = system: SK-MEL-2 melanoma
SK-MEL-5 melanoma = system: SK-MEL-5 melanoma
SR leukemia = system: SR leukemia
UACC-257 melanoma = system: UACC-257 melanoma
UO-31 renal = system: UO-31 renal
CAKI-1 renal = system: CAKI-1 renal
T-47D breast = system: T-47D breast

Nc1ncnc2nc(-c3ccc(C[P+](c4ccccc4)(c4ccccc4)c4ccccc4)cc3)[nH]c12
GI50 (786-0 renal): 48.2 µM | GI50 (SNB-75 CNS): 57.7 µM | GI50 (U251 CNS): 32.7 µM

COc1cccc(-c2cc(=O)c3cc(N)ccc3[nH]2)c1
TGI (786-0 renal): > 100 µM | TGI (A549 NSCLC): > 100 µM | TGI (ACHN renal): > 100 µM | TGI (BT-549 breast): > 100 µM | TGI (CCRF-CEM leukemia): > 100 µM | TGI (COLO 205 colon): > 100 µM | TGI (EKVX NSCLC): > 100 µM | TGI (HCC-2998 colon): 48.6 µM | TGI (HCT-15 colon): > 100 µM | TGI (HOP-62 NSCLC): > 100 µM | TGI (HOP-92 NSCLC): 59.7 µM | TGI (HT29 colon): 18 µM | TGI (IGROV1 ovarian): > 100 µM | TGI (KM12 colon): > 100 µM | TGI (M14 melanoma): > 100 µM | TGI (MCF7 breast): > 100 µM | TGI (MDA-MB-231 breast): > 100 µM | TGI (MOLT-4 leukemia): > 100 µM | TGI (NCI-H23 lung): > 100 µM | TGI (NCI-H460 lung): > 100 µM | TGI (NCI-H522 lung): 7.56 µM | TGI (NCI/ADR-RES ovarian): 11.9 µM | GI50 (OVCAR-4 ovarian): 82.3 µM | TGI (OVCAR-4 ovarian): > 100 µM | TGI (OVCAR-5 ovarian): > 100 µM | TGI (OVCAR-8 ovarian): > 100 µM | TGI (PC-3 prostate): > 100 µM | TGI (SF-539 CNS): 5.2 µM | TGI (SK-MEL-28 melanoma): > 100 µM | TGI (SK-OV-3 ovarian): 6.79 µM | TGI (SN12C renal): > 100 µM | TGI (SNB-19 CNS): > 100 µM | TGI (SNB-75 CNS): > 100 µM | TGI (SW-620 colon): > 100 µM | TGI (TK-10 renal): > 100 µM | TGI (U251 CNS): > 100 µM | TGI (UACC-62 melanoma): > 100 µM

CN(C)CCCNC(=O)c1cc(NC(=O)c2cc(NC(=O)c3cc(NC(=O)CCc4c[nH]c5ccccc45)cn3C)cn2C)cn1C
GI50 (786-0 renal): > 100 µM | TGI (786-0 renal): > 100 µM | GI50 (A549 NSCLC): > 100 µM | TGI (A549 NSCLC): > 100 µM | GI50 (ACHN renal): > 100 µM | TGI (ACHN renal): > 100 µM | GI50 (BT-549 breast): > 100 µM | TGI (BT-549 breast): > 100 µM | GI50 (CCRF-CEM leukemia): > 100 µM | TGI (CCRF-CEM leukemia): > 100 µM | GI50 (COLO 205 colon): > 100 µM | TGI (COLO 205 colon): > 100 µM | GI50 (DU-145 prostate): > 100 µM | TGI (DU-145 prostate): > 100 µM | GI50 (EKVX NSCLC): > 100 µM | TGI (EKVX NSCLC): > 100 µM | GI50 (HCC-2998 colon): > 100 µM | TGI (HCC-2998 colon): > 100 µM | GI50 (HCT-116 colon): > 100 µM | TGI (HCT-116 colon): > 100 µM | GI50 (HCT-15 colon): > 100 µM | TGI (HCT-15 colon): > 100 µM | GI50 (HL-60(TB) leukemia): > 100 µM | TGI (HL-60(TB) leukemia): > 100 µM | GI50 (HOP-62 NSCLC): > 100 µM | TGI (HOP-62 NSCLC): > 100 µM | GI50 (HOP-92 NSCLC): 67.1 µM | TGI (HOP-92 NSCLC): > 100 µM | GI50 (HS 578T breast): 0.0701 µM | TGI (HS 578T breast): > 100 µM | GI50 (HT29 colon): 30.7 µM | TGI (HT29 colon): > 100 µM | GI50 (IGROV1 ovarian): > 100 µM | TGI (IGROV1 ovarian): > 100 µM | GI50 (K-562 leukemia): > 100 µM | TGI (K-562 leukemia): > 100 µM | GI50 (KM12 colon): > 100 µM | TGI (KM12 colon): > 100 µM | GI50 (LOX IMVI melanoma): > 100 µM | TGI (LOX IMVI melanoma): > 100 µM | GI50 (M14 melanoma): > 100 µM | TGI (M14 melanoma): > 100 µM | GI50 (MALME-3M melanoma): 30.4 µM | TGI (MALME-3M melanoma): 88.7 µM | GI50 (MCF7 breast): 56.8 µM | TGI (MCF7 breast): > 100 µM | GI50 (MDA-MB-231 breast): > 100 µM | TGI (MDA-MB-231 breast): > 100 µM | GI50 (MDA-MB-435): > 100 µM | TGI (MDA-MB-435): > 100 µM | GI50 (MOLT-4 leukemia): > 100 µM | TGI (MOLT-4 leukemia): > 100 µM | GI50 (NCI-H226 lung): > 100 µM | TGI (NCI-H226 lung): > 100 µM | GI50 (NCI-H23 lung): > 100 µM | TGI (NCI-H23 lung): > 100 µM | GI50 (NCI-H460 lung): > 100 µM | TGI (NCI-H460 lung): > 100 µM | GI50 (NCI-H522 lung): > 100 µM | TGI (NCI-H522 lung): > 100 µM | GI50 (NCI/ADR-RES ovarian): > 100 µM | TGI (NCI/ADR-RES ovarian): > 100 µM | GI50 (OVCAR-3 ovarian): > 100 µM | TGI (OVCAR-3 ovarian): > 100 µM | GI50 (OVCAR-4 ovarian): 88.5 µM | TGI (OVCAR-4 ovarian): > 100 µM | GI50 (OVCAR-5 ovarian): > 100 µM | TGI (OVCAR-5 ovarian): > 100 µM | GI50 (OVCAR-8 ovarian): > 100 µM | TGI (OVCAR-8 ovarian): > 100 µM | GI50 (PC-3 prostate): > 100 µM | TGI (PC-3 prostate): > 100 µM | GI50 (RPMI-8226 leukemia): > 100 µM | TGI (RPMI-8226 leukemia): > 100 µM | GI50 (RXF 393 renal): > 100 µM | TGI (RXF 393 renal): > 100 µM | GI50 (SF-268 CNS): > 100 µM | TGI (SF-268 CNS): > 100 µM | GI50 (SF-295 CNS): > 100 µM | TGI (SF-295 CNS): > 100 µM | GI50 (SF-539 CNS): > 100 µM | TGI (SF-539 CNS): > 100 µM | GI50 (SK-MEL-2 melanoma): > 100 µM | TGI (SK-MEL-2 melanoma): > 100 µM | GI50 (SK-MEL-28 melanoma): 2.24 µM | TGI (SK-MEL-28 melanoma): > 100 µM | GI50 (SK-MEL-5 melanoma): > 100 µM | TGI (SK-MEL-5 melanoma): > 100 µM | GI50 (SK-OV-3 ovarian): > 100 µM | TGI (SK-OV-3 ovarian): > 100 µM | GI50 (SN12C renal): > 100 µM | TGI (SN12C renal): > 100 µM | GI50 (SNB-19 CNS): > 100 µM | TGI (SNB-19 CNS): > 100 µM | GI50 (SNB-75 CNS): > 100 µM | TGI (SNB-75 CNS): > 100 µM | GI50 (SR leukemia): > 100 µM | TGI (SR leukemia): > 100 µM | GI50 (SW-620 colon): > 100 µM | TGI (SW-620 colon): > 100 µM | GI50 (TK-10 renal): > 100 µM | TGI (TK-10 renal): > 100 µM | GI50 (U251 CNS): > 100 µM | TGI (U251 CNS): > 100 µM | GI50 (UACC-257 melanoma): > 100 µM | TGI (UACC-257 melanoma): > 100 µM | GI50 (UACC-62 melanoma): > 100 µM | TGI (UACC-62 melanoma): > 100 µM | GI50 (UO-31 renal): > 100 µM | TGI (UO-31 renal): > 100 µM

O=P(O)(Cc1ccccc1)OCC1(O)OCC(O)C(O)C1O (stereo not given)
TGI (786-0 renal): > 10 µM | TGI (A549 NSCLC): > 10 µM | TGI (ACHN renal): > 10 µM | TGI (CAKI-1 renal): > 10 µM | TGI (COLO 205 colon): > 10 µM | TGI (HOP-62 NSCLC): > 10 µM | TGI (IGROV1 ovarian): > 10 µM | TGI (K-562 leukemia): > 10 µM | TGI (M14 melanoma): > 10 µM | TGI (MALME-3M melanoma): > 10 µM | TGI (MCF7 breast): > 10 µM | TGI (MDA-MB-435): > 10 µM | TGI (NCI-H23 lung): > 10 µM | TGI (NCI-H460 lung): > 10 µM | TGI (NCI/ADR-RES ovarian): > 10 µM | TGI (OVCAR-4 ovarian): > 10 µM | TGI (OVCAR-5 ovarian): > 10 µM | TGI (RPMI-8226 leukemia): > 10 µM | TGI (RXF 393 renal): > 10 µM | TGI (SF-268 CNS): > 10 µM | TGI (SK-MEL-2 melanoma): > 10 µM | TGI (SK-MEL-28 melanoma): > 10 µM | TGI (SK-MEL-5 melanoma): > 10 µM | TGI (SK-OV-3 ovarian): > 10 µM | TGI (SNB-75 CNS): > 10 µM | TGI (SR leukemia): > 10 µM | TGI (SW-620 colon): > 10 µM | TGI (T-47D breast): > 10 µM | TGI (U251 CNS): > 10 µM | TGI (UACC-62 melanoma): > 10 µM
